Results published in patent EP4778931A1, “ULK1 INHIBITOR, PREPARATION METHOD THEREFOR AND USE THEREOF” (Dovetree Medicines Unus, Inc., priority 2023, dated 2025).
pIC50: −log10 of the molar value.

Tests used:
[1] = target: T1, ULK1 (Homo sapiens, UniProt O75385); assay: Inhibition of ULK1 protein activity (phosphorylation function), ADP-Glo method; format: biochemical
T1 construct: purchased Promega V3521
T1 sequence (O75385 1-1050): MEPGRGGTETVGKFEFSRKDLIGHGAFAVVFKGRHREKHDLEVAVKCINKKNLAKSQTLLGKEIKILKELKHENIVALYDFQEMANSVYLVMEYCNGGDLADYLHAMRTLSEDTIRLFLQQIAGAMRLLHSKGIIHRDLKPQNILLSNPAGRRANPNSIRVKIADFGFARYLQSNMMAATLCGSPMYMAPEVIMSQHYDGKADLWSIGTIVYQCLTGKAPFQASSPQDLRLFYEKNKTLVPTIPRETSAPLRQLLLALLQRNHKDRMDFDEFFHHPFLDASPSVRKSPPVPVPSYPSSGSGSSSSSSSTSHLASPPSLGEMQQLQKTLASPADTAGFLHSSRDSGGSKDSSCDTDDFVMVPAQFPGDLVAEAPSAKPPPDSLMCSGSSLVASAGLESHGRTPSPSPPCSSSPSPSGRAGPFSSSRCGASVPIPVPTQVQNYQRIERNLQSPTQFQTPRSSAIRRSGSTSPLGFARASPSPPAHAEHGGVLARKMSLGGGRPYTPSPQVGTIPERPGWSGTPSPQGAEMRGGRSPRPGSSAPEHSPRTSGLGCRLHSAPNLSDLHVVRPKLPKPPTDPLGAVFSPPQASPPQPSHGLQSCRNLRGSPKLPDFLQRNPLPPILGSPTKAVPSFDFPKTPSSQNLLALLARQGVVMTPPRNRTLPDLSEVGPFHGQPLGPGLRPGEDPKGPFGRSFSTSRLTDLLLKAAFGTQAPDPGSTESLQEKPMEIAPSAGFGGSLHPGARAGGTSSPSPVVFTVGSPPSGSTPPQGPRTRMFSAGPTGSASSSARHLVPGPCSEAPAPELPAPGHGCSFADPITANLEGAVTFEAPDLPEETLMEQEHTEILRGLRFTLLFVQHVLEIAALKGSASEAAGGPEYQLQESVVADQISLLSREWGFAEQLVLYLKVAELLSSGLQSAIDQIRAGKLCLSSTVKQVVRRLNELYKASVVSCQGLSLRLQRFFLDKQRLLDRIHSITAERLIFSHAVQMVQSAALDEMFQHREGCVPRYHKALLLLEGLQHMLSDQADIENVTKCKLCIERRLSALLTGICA
Protocol: In this experiment, the inhibitory effect of a compound on the phosphorylation function of ULK1 was detected by ADP-Glo method. The inhibitory effect of the compound of the present disclosure on the ULK1 target was evaluated based on IC50.
Compound formulation: Using an ECHO (Beckman, ECHO650), the compound was serially diluted 3-fold in DMSO in a 384-well plate (PE, 6007290). A total of 10 concentration points were set, with the maximum concentration of the compound being 10 µM, and 50 nL per well. Positive control wells and negative control wells were added with 50 nL DMSO, respectively.
Reaction process: A 32 nM of ULK1 (Promega, V3521) solution was formulated, and 2.5 µL/well was transferred to the compound test wells and the negative control wells (NC). 2.5 µL/well of 1× Assay buffer was added to the positive control wells (PC). A mixed solution of 100 µM of ATP and 1.86 µM of MBP was formulated, and 2.5 µL/well was transferred to the reaction plate. After centrifugation, the reaction was initiated and incubated at room temperature for 60 min. After the reaction was completed, 5 µL/well of ADP-Glo Reagent (Promega, V9102) was added to the reaction plate. After centrifugation, the reaction was incubated at room temperature for 40 minutes. Finally, 10 µL/well of Kinase Detection Buffer was added, followed by centrifugation and incubation at room temperature for 30 min. The chemiluminescence value was read using Envision (PE, Envision2105).
Assay buffer: a reaction buffer; and Kinase Detection buffer: a detection buffer, both were taken from the ADP-Glodetection kit, purchased from Promega, model V9102.
The inhibition ratio of a compound on ULK1 activity was calculated using the following formula: [formula]
The dose-effect curve was fitted using the log(inhibitor) vs. response -Variable slope of the analysis software GraphPad Prism 8, thereby affording the IC50 value of each compound for enzyme activity.

[2] = tested on: autophagy level in HEK293 GFP-LC3 stably transfected cells; assay: Inhibition of autophagy level in HEK293 GFP-LC3 stably transfected cells (GFP fluorescence, high-content imaging); format: cell-based; conditions: Homo sapiens, Torin1 100 nM, 24 h incubation, 8 concentrations, highest 10 µM, read-out: Autophagic Flux IC50
Protocol: The inhibitory effect of the compound of the present disclosure on intracellular autophagy was evaluated by testing the impact of the compound of the present disclosure on the fluorescence intensity of HEK293 GFP-LC3 stably transfected cells.
HEK293 GFP-LC3 stably transfected cells (HEK293, ATCC, CRL-1573) were cultured in a complete medium, namely, a DMEM medium (Gibco, 11965-092) containing 10% fetal bovine serum (Corning, 35-081-CV), 1% double antibody (Gibco, 15140-122) and 1 µg/mL of Puromycin (Invitrogen- A1113803).
Cell plating: HEK293 GFP-LC3 stably transfected cells at 80% growth confluence were digested, diluted with a medium free of Puromycin, and added to a 96-well cell culture plate (Geriner, 655090) at 12,000 cells per well, with a volume of 90 µL.
Compound incubation: 5 µL of Torin1 and 5 µL of a serially diluted compound were added to each well so that the highest concentration of the compound in the reaction system was 10 µM. 3-fold serial dilution with 8 concentrations was performed, and the final concentration of Torin1 was 100 nM. The DMSO content in the system was 0.1%. The positive control wells (PC) contain DMSO at a final concentration of 0.1%, and the negative control wells (NC) contain 100 nM of Torin1 with 0.1% of DMSO. The reaction plate was placed in an incubator at 37°C in 5% CO2, and was incubated for 24 h.
Cell staining and fixation: The cell plate was taken out, and 10 µL of Hochest33342 nuclear staining reagent (Thermo, H1399) was added to each well, followed by incubation at 37°C in 5% CO2 for 30 min. After the incubation was completed, the cell supernatant was discarded, and 100 µL of pre-cooled 4% paraformaldehyde was added to each well to fix the cells for 15 min. Then, the fixative was discarded, and 100 µL of PBS was added to each well. Images were captured for analysis using a high-content cell imaging analyzer (PE, Operetta CLS), and GFP fluorescence signals were collected for data processing.
The average GFP fluorescence signal intensity in the reaction wells was collected for the calculation of the inhibition ratio: [formula]
The dose-effect curve was fitted using the log(inhibitor) vs. response -Variable slope of Graphpad Prism8, thereby affording the IC50 value of each compound for inhibiting autophagy level in HEK293 GFP-LC3 stably transfected cells.

Compound	pIC50 [1]	pIC50 [2]
CN1CCN2c3ccc(Nc4ncc(C(F)(F)F)c(N5CC6(CN(C)C6)C5)n4)cc3COCC2C1 (stereo not shown) [Compound 22]	> 7.00	< 6.00
CN1CCN2c3ccc(Nc4ncc(C(F)(F)F)c(N5CC6(CCN(C)C6)C5)n4)cc3COCC2C1 (stereo not shown) [Compound 20]	> 7.00	< 6.00
CN1CCN2c3ccc(Nc4ncc(C(F)(F)F)c(N[C@H]5CC[C@@H](n6cccn6)CC5)n4)cc3COCC2C1 (stereo partly shown) [Compound 6]	> 7.00	6.00 to 7.00
CN1CCN2c3ccc(Nc4ncc(C(F)(F)F)c(N5CCC6(CCN(C)C6)CC5)n4)cc3COCC2C1 (stereo not shown) [Compound 2]	> 7.00	6.00 to 7.00
CN1CCN2c3ccc(Nc4ncc(C(F)(F)F)c(OCCCN5CCCCC5=O)n4)cc3OCC2C1 (stereo not shown) [Compound 12]	> 7.00	6.00 to 7.00
CN1CCN2c3ccc(Nc4ncc(C(F)(F)F)c(OCCCn5cccn5)n4)cc3COCC2C1 (stereo not shown) [Compound 23]	> 7.00	6.00 to 7.00
CN1CCN2c3ccc(Nc4ncc(C(F)(F)F)c(NCCCN5CCCCC5=O)n4)cc3COCC2C1 (stereo not shown) [Compound 11]	> 7.00	< 6.00
CN1CCN2c3ccc(Nc4ncc(C(F)(F)F)c(NC5CCN(C(=O)C6CCC6)CC5)n4)cc3COCC2C1 (stereo not shown) [Compound 21]	> 7.00	6.00 to 7.00
CN1CCN2c3ccc(Nc4ncc(C(F)(F)F)c(OCCCc5ccccc5C#N)n4)cc3COCC2C1 (stereo not shown) [Compound 9]	> 7.00	6.00 to 7.00
CN1CCN2c3ccc(Nc4ncc(C(F)(F)F)c(N5CCN(C)C(=O)C5)n4)cc3COCC2C1 (stereo not shown) [Compound 1]	6.00 to 7.00	< 6.00
CN1CCN2c3ccc(Nc4ncc(C(F)(F)F)c(NCCCn5cccn5)n4)cc3COCC2C1 (stereo not shown) [Compound 8]	> 7.00	6.00 to 7.00
CN1CCN2c3ccc(Nc4ncc(C(F)(F)F)c(N5CCC6(CCN(C)C6)C5)n4)cc3COCC2C1 (stereo not shown) [Compound 5]	> 7.00	6.00 to 7.00
CN1CCN2c3ccc(Nc4ncc(C(F)(F)F)c(N5CCC(n6cccn6)CC5)n4)cc3COCC2C1 (stereo not shown) [Compound 4]	> 7.00	6.00 to 7.00
CN1CCN2c3ccc(Nc4ncc(C(F)(F)F)c(OCCCN5CCCCC5=O)n4)cc3COCC2C1 (stereo not shown) [Compound 3]	> 7.00	6.00 to 7.00
